{"source": "paper PMC2674504", "about": "“Foam nest components of the túngara frog: a cocktail of proteins conferring physical and biological resilience” (Proceedings of the Royal Society B: Biological Sciences, 2009)", "key": {"Rsn-4 [1]": {"target": "T1, Rsn-4 (Engystomops pustulosus, UniProt B5DCK4)", "T1 construct": "dimer or higher order", "T1 sequence (B5DCK4 20-193)": "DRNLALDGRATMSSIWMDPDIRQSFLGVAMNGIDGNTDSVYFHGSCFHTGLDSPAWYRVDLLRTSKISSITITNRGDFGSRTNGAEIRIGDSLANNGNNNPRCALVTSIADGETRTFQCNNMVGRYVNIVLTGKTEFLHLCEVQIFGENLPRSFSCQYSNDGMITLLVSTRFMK", "experiment": "haemagglutination inhibition (human erythrocytes); lactose-agarose affinity chromatography eluted with […] lactose", "assay_type": "binding", "conditions": "20 mM sugar; 10 mM HEPES, 150 mM NaCl, 2 mM CaCl2; room temperature"}, "Rsn-4 [2]": {"target": "T1, Rsn-4", "experiment": "haemagglutination inhibition (human erythrocytes)", "assay_type": "cell-based", "conditions": "20 mM sugar; 10 mM HEPES, 150 mM NaCl, 2 mM CaCl2; room temperature; protein refolded in buffer with 20 mM galactose"}, "papain": {"target": "T2, papain (Carica papaya, UniProt P00784)", "T2 construct": "commercial enzyme from papaya latex (Sigma)", "T2 sequence (P00784 134-345)": "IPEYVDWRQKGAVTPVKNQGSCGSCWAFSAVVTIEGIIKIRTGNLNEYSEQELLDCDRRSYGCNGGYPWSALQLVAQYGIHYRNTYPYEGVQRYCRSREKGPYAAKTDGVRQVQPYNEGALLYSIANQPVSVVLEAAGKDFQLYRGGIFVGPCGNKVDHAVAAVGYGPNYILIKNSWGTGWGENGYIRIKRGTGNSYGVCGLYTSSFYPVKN", "experiment": "fluorogenic proteolysis assay (ex […] nm, em […] nm)", "assay_type": "biochemical", "conditions": "0.1 M acetate pH 5.0, 10 mM dithiothreitol, 2 mM EDTA, 30 °C; mere turnover"}}, "note": "Where a SMILES comes first, the peptide text is derived from it. The star is where a group is joined. AMC = Cc1cc(=O)oc2cc(N*)ccc12; Cbz = O=C(OCc1ccccc1)*", "data": [{"compound": "OC[C@H]1O[C@@H](O[C@H]2[C@H](O)[C@@H](O)C(O)O[C@@H]2CO)[C@H](O)[C@@H](O)[C@H]1O", "note": "(stereo partly drawn) [lactose]", "values": [{"measurement": "haemagglutination inhibition (human erythrocytes); lactose-agarose affinity chro", "setting": "Rsn-4 [1]", "result": "Rsn-4 could be inhibited with lactose and galactose"}]}, {"compound": "OC[C@H]1OC(O)[C@H](O)[C@@H](O)[C@H]1O", "note": "(stereo partly drawn) [galactose]", "values": [{"measurement": "haemagglutination inhibition (human erythrocytes)", "setting": "Rsn-4 [2]", "result": "agglutination by Rsn-4 was unaffected by fucose but completely inhibited by galactose"}]}, {"compound": "Cc1cc(=O)oc2cc(NC(=O)[C@H](CCCNC(=N)N)NC(=O)[C@H](Cc3ccccc3)NC(=O)OCc3ccccc3)ccc12", "note": "[Z-Phe-Arg 7-amido-4-methylcoumarin] (Cbz-Phe-Arg-{AMC})", "values": [{"measurement": "fluorogenic proteolysis assay (ex 370 nm, em 470 nm)", "setting": "papain", "result": "papain) was investigated using fluorogenic or chromogenic substrates, Z-Phe-Arg 7-amido-4-methylcoumarin"}]}]}
